Test system: Unknown protein yeast genes
Assay: DNA chip mRNA expression in yeast, unknown protein yeast genes (Table 1)
Assay type: cell-based, Saccharomyces cerevisiae S288C
In short: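 Value is the scanned fluorescence intensity ratio of exposed versus chemical-free cells. Log-phase S288C yeast in YPD at 25° C. received one toxic substance for two hours, dosed to slow growth without killing; Cy3/Cy5-labeled cDNA from oligo-dT-purified mRNA was hybridized to a whole-genome chip at 65° C.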

With `Oc1cc(Cl)c(Cl)cc1Cl` [(6), 2,4,5-trichlorophenol] the “The level of expressed mRNA in the presence of chemical substance/The level of expressed mRNA in the absence of chemical substance” value (yeast gene YKL086W, incubated two hours with chemical substance) was 1.0, the “The level of expressed mRNA in the presence of chemical substance/The level of expressed mRNA in the absence of chemical substance” value (yeast gene YKL151C, incubated two hours with chemical substance) was 2.0 and the “The level of expressed mRNA in the presence of chemical substance/The level of expressed mRNA in the absence of chemical substance” value (yeast gene YKL153W, incubated two hours with chemical substance) was 2.9. The “The level of expressed mRNA in the presence of chemical substance/The level of expressed mRNA in the absence of chemical substance” value (yeast gene YKL195W, incubated two hours with chemical substance) was 2.5, the “The level of expressed mRNA in the presence of chemical substance/The level of expressed mRNA in the absence of chemical substance” value (yeast gene YKR018C) was 1.7 and the “The level of expressed mRNA in the presence of chemical substance/The level of expressed mRNA in the absence of chemical substance” value (yeast gene YKR049C) was 3.0. The “The level of expressed mRNA in the presence of chemical substance/The level of expressed mRNA in the absence of chemical substance” value (yeast gene YKR091W, incubated two hours with chemical substance) was 1.0, the “The level of expressed mRNA in the presence of chemical substance/The level of expressed mRNA in the absence of chemical substance” value (yeast gene YLR054C, incubated two hours with chemical substance) was 1.2 and the “The level of expressed mRNA in the presence of chemical substance/The level of expressed mRNA in the absence of chemical substance” value (yeast gene YLR149C, incubated two hours with chemical substance) was 1.4. For the same compound, the “The level of expressed mRNA in the presence of chemical substance/The level of expressed mRNA in the absence of chemical substance” value (yeast gene YLR152C, incubated two hours with chemical substance) was 2.1, the “The level of expressed mRNA in the presence of chemical substance/The level of expressed mRNA in the absence of chemical substance” value (yeast gene YLR194C, incubated two hours with chemical substance) was 0.9 and the “The level of expressed mRNA in the presence of chemical substance/The level of expressed mRNA in the absence of chemical substance” value (yeast gene YLR324W, incubated two hours with chemical substance) was 1.2. The “The level of expressed mRNA in the presence of chemical substance/The level of expressed mRNA in the absence of chemical substance” value (yeast gene YLR328W) was 4.8, the “The level of expressed mRNA in the presence of chemical substance/The level of expressed mRNA in the absence of chemical substance” value (yeast gene YLR350W, incubated two hours with chemical substance) was 1.6 and the “The level of expressed mRNA in the presence of chemical substance/The level of expressed mRNA in the absence of chemical substance” value (yeast gene YLR387C, incubated two hours with chemical substance) was 1.9. The “The level of expressed mRNA in the presence of chemical substance/The level of expressed mRNA in the absence of chemical substance” value (yeast gene YLR460C) was 0.6, the “The level of expressed mRNA in the presence of chemical substance/The level of expressed mRNA in the absence of chemical substance” value (yeast gene YML117W, incubated two hours with chemical substance) was 1.0 and the “The level of expressed mRNA in the presence of chemical substance/The level of expressed mRNA in the absence of chemical substance” value (yeast gene YMR009W, incubated two hours with chemical substance) was 1.2. The “The level of expressed mRNA in the presence of chemical substance/The level of expressed mRNA in the absence of chemical substance” value (yeast gene YMR040W) was 2.8, the “The level of expressed mRNA in the presence of chemical substance/The level of expressed mRNA in the absence of chemical substance” value (yeast gene YMR067C, incubated two hours with chemical substance) was 1.4 and the “The level of expressed mRNA in the presence of chemical substance/The level of expressed mRNA in the absence of chemical substance” value (yeast gene YMR090W) was 3.8. The “The level of expressed mRNA in the presence of chemical substance/The level of expressed mRNA in the absence of chemical substance” value (yeast gene YMR095C, incubated two hours with chemical substance) was 0.7, the “The level of expressed mRNA in the presence of chemical substance/The level of expressed mRNA in the absence of chemical substance” value (yeast gene YMR097C, incubated two hours with chemical substance) was 1.2 and the “The level of expressed mRNA in the presence of chemical substance/The level of expressed mRNA in the absence of chemical substance” value (yeast gene YMR102C, incubated two hours with chemical substance) was 6.3. For the same compound, the “The level of expressed mRNA in the presence of chemical substance/The level of expressed mRNA in the absence of chemical substance” value (yeast gene YMR107W, incubated two hours with chemical substance) was 1.0, the “The level of expressed mRNA in the presence of chemical substance/The level of expressed mRNA in the absence of chemical substance” value (yeast gene YMR180C, incubated two hours with chemical substance) was 2.4 and the “The level of expressed mRNA in the presence of chemical substance/The level of expressed mRNA in the absence of chemical substance” value (yeast gene YMR184W, incubated two hours with chemical substance) was 0.9. The “The level of expressed mRNA in the presence of chemical substance/The level of expressed mRNA in the absence of chemical substance” value (yeast gene YMR191W, incubated two hours with chemical substance) was 1.0, the “The level of expressed mRNA in the presence of chemical substance/The level of expressed mRNA in the absence of chemical substance” value (yeast gene YMR295C, incubated two hours with chemical substance) was 1.9 and the “The level of expressed mRNA in the presence of chemical substance/The level of expressed mRNA in the absence of chemical substance” value (yeast gene YMR316W, incubated two hours with chemical substance) was 0.7. For the same compound, the “The level of expressed mRNA in the presence of chemical substance/The level of expressed mRNA in the absence of chemical substance” value (yeast gene YNL044W, incubated two hours with chemical substance) was 0.9, the “The level of expressed mRNA in the presence of chemical substance/The level of expressed mRNA in the absence of chemical substance” value (yeast gene YNL074C, incubated two hours with chemical substance) was 1.7 and the “The level of expressed mRNA in the presence of chemical substance/The level of expressed mRNA in the absence of chemical substance” value (yeast gene YNL092W, incubated two hours with chemical substance) was 1.2. The “The level of expressed mRNA in the presence of chemical substance/The level of expressed mRNA in the absence of chemical substance” value (yeast gene YNL115C, incubated two hours with chemical substance) was 9.1, the “The level of expressed mRNA in the presence of chemical substance/The level of expressed mRNA in the absence of chemical substance” value (yeast gene YNL156C, incubated two hours with chemical substance) was 1.3 and the “The level of expressed mRNA in the presence of chemical substance/The level of expressed mRNA in the absence of chemical substance” value (yeast gene YNL234W, incubated two hours with chemical substance) was 1.3. For the same compound, the “The level of expressed mRNA in the presence of chemical substance/The level of expressed mRNA in the absence of chemical substance” value (yeast gene YNL281W, incubated two hours with chemical substance) was 0.9, the “The level of expressed mRNA in the presence of chemical substance/The level of expressed mRNA in the absence of chemical substance” value (yeast gene YNL305C, incubated two hours with chemical substance) was 1.1 and the “The level of expressed mRNA in the presence of chemical substance/The level of expressed mRNA in the absence of chemical substance” value (yeast gene YNR068C, incubated two hours with chemical substance) was 0.4. For the same compound, the “The level of expressed mRNA in the presence of chemical substance/The level of expressed mRNA in the absence of chemical substance” value (yeast gene YOL032W, incubated two hours with chemical substance) was 2.1, the “The level of expressed mRNA in the presence of chemical substance/The level of expressed mRNA in the absence of chemical substance” value (yeast gene YOL036W, incubated two hours with chemical substance) was 1.2 and the “The level of expressed mRNA in the presence of chemical substance/The level of expressed mRNA in the absence of chemical substance” value (yeast gene YOL047C, incubated two hours with chemical substance) was 1.5. For the same compound, the “The level of expressed mRNA in the presence of chemical substance/The level of expressed mRNA in the absence of chemical substance” value (yeast gene YOL071W, incubated two hours with chemical substance) was 1.7, the “The level of expressed mRNA in the presence of chemical substance/The level of expressed mRNA in the absence of chemical substance” value (yeast gene YOL082W, incubated two hours with chemical substance) was 1.8 and the “The level of expressed mRNA in the presence of chemical substance/The level of expressed mRNA in the absence of chemical substance” value (yeast gene YOL083W, incubated two hours with chemical substance) was 4.5. The “The level of expressed mRNA in the presence of chemical substance/The level of expressed mRNA in the absence of chemical substance” value (yeast gene YOL117W, incubated two hours with chemical substance) was 2.0, the “The level of expressed mRNA in the presence of chemical substance/The level of expressed mRNA in the absence of chemical substance” value (yeast gene YOL131W, incubated two hours with chemical substance) was 1.1 and the “The level of expressed mRNA in the presence of chemical substance/The level of expressed mRNA in the absence of chemical substance” value (yeast gene YOL150C) was 5.2. The “The level of expressed mRNA in the presence of chemical substance/The level of expressed mRNA in the absence of chemical substance” value (yeast gene YOL162W, incubated two hours with chemical substance) was 1.2, the “The level of expressed mRNA in the presence of chemical substance/The level of expressed mRNA in the absence of chemical substance” value (yeast gene YOR019W, incubated two hours with chemical substance) was 1.3 and the “The level of expressed mRNA in the presence of chemical substance/The level of expressed mRNA in the absence of chemical substance” value (yeast gene YOR197W, incubated two hours with chemical substance) was 1.3. For the same compound, the “The level of expressed mRNA in the presence of chemical substance/The level of expressed mRNA in the absence of chemical substance” value (yeast gene YPL087W, incubated two hours with chemical substance) was 4.3, the “The level of expressed mRNA in the presence of chemical substance/The level of expressed mRNA in the absence of chemical substance” value (yeast gene YPL196W, incubated two hours with chemical substance) was 2.0 and the “The level of expressed mRNA in the presence of chemical substance/The level of expressed mRNA in the absence of chemical substance” value (yeast gene YPL206C, incubated two hours with chemical substance) was 1.8. The “The level of expressed mRNA in the presence of chemical substance/The level of expressed mRNA in the absence of chemical substance” value (yeast gene YPL222W, incubated two hours with chemical substance) was 2.2, the “The level of expressed mRNA in the presence of chemical substance/The level of expressed mRNA in the absence of chemical substance” value (yeast gene YPR023C, incubated two hours with chemical substance) was 1.4 and the “The level of expressed mRNA in the presence of chemical substance/The level of expressed mRNA in the absence of chemical substance” value (yeast gene YPR151C, incubated two hours with chemical substance) was 1.6.

Source: patent US8192962B2, “Processes for detecting toxic substances” (Daikin Industries, Ltd., priority 2001, dated 2012)
